Test results taken from paper PMC4774911, “Biochemical Screening of Five Protein Kinases from Plasmodium falciparum against 14,000 Cell-Active Compounds” (PLoS ONE, 2016).
Values joined by “and” are separate entries in the source; they are usually repeats but may differ in a detail not shown here. Equal entries are not always repeated.

Legend:
Experiment in all cases: biochemical
[1] = molecular target: MAPK7 (Homo sapiens, UniProt Q13164)
[2] = molecular target: T1, PIP4K2C (Homo sapiens, UniProt Q8TBX8)
T1 sequence (Q8TBX8 1-421): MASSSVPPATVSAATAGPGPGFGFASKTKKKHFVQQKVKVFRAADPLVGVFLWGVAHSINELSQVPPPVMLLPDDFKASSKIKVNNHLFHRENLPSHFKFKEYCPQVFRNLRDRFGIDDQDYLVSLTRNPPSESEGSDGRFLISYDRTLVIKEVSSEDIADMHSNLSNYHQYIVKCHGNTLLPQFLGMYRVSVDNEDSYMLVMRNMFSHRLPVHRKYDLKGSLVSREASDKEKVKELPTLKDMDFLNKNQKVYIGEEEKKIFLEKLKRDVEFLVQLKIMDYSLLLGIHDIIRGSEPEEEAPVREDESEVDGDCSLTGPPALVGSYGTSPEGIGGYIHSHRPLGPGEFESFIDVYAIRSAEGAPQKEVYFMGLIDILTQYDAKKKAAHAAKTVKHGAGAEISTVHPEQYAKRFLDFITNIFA

[3] = molecular target: T2, STK4 (Homo sapiens, UniProt Q13043)
T2 sequence (Q13043 1-487): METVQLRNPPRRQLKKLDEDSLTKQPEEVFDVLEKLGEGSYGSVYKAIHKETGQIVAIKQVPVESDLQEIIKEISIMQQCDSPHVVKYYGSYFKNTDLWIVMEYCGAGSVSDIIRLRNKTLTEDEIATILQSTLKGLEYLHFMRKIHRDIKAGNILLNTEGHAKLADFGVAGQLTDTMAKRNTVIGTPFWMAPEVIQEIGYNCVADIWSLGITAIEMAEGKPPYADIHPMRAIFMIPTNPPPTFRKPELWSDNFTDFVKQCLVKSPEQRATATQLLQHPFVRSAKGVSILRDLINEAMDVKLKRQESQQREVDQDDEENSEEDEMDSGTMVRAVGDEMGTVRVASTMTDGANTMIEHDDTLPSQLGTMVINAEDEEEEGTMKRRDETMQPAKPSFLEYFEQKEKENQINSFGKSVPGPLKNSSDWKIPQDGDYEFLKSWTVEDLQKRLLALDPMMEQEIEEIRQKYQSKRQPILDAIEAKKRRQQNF

[4] = molecular target: JAK2 (Homo sapiens, UniProt O60674)
JAK2, sequence (O60674 whole entry): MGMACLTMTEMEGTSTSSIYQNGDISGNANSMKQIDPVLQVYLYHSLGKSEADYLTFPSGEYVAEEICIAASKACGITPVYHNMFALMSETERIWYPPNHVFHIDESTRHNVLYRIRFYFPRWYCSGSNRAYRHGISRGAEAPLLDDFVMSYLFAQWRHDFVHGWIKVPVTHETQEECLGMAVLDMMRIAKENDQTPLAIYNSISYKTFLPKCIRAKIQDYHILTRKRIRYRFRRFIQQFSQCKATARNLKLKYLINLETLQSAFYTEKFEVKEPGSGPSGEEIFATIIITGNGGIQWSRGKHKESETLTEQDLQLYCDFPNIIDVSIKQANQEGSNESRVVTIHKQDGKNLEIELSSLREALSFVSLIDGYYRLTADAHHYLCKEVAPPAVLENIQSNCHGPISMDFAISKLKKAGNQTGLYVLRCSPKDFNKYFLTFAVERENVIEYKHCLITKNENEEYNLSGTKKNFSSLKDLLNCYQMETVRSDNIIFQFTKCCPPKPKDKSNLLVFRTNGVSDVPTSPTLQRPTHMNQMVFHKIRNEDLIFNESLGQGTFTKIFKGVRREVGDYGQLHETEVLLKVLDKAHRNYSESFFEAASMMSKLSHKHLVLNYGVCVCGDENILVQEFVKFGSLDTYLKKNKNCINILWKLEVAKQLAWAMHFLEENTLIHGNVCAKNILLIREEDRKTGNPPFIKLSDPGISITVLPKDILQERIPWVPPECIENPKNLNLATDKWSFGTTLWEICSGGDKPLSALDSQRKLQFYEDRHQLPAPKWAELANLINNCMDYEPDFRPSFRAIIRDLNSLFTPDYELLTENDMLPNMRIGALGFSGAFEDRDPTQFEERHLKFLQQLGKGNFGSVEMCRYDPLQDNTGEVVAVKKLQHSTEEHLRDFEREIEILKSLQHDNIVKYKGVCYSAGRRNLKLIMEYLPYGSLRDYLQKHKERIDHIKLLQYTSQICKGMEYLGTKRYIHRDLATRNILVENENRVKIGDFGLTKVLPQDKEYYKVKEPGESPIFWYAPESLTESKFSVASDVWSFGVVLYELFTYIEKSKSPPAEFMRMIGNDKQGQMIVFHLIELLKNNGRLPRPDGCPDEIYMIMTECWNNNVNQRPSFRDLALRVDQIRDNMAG

[5] = molecular target: T3, MARK4 (Homo sapiens, UniProt Q96L34)
T3 sequence (Q96L34 1-752): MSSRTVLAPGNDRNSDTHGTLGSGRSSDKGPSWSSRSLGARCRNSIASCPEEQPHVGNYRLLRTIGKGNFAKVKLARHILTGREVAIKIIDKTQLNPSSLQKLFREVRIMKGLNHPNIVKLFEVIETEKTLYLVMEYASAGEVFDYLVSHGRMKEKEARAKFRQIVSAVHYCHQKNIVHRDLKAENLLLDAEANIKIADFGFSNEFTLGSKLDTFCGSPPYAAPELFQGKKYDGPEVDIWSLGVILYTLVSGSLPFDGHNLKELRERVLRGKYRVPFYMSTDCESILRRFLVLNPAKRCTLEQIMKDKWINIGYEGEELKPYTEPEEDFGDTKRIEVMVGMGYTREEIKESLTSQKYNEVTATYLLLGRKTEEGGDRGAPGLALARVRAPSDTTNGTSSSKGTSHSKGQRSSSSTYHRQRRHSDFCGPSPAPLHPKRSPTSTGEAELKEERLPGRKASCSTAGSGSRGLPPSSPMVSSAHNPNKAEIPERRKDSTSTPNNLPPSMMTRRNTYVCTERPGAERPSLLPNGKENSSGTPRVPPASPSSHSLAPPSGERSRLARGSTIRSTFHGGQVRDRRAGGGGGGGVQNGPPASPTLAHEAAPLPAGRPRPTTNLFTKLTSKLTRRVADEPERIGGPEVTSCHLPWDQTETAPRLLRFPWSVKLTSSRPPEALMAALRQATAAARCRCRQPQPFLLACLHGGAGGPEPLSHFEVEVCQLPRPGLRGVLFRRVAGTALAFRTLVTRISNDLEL

[6] = molecular target: T4, TGFBR1 (Homo sapiens, UniProt P36897)
T4 sequence (P36897 1-503): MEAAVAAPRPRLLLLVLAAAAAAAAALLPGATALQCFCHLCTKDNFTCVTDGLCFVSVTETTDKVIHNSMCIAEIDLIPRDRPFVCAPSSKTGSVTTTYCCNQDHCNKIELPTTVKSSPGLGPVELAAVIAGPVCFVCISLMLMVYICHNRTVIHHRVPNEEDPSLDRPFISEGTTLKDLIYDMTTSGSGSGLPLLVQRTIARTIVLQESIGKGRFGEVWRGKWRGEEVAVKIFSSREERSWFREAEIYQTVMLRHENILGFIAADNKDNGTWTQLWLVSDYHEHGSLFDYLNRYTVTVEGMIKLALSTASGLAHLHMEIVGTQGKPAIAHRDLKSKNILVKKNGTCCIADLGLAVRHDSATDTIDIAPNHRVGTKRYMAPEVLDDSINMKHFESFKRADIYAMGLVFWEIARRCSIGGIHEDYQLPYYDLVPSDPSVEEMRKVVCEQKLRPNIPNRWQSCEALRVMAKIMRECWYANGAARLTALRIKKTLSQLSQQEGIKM

[7] = molecular target: T5, MAPKAPK5 (Homo sapiens, UniProt Q8IW41)
T5 sequence (Q8IW41 1-473): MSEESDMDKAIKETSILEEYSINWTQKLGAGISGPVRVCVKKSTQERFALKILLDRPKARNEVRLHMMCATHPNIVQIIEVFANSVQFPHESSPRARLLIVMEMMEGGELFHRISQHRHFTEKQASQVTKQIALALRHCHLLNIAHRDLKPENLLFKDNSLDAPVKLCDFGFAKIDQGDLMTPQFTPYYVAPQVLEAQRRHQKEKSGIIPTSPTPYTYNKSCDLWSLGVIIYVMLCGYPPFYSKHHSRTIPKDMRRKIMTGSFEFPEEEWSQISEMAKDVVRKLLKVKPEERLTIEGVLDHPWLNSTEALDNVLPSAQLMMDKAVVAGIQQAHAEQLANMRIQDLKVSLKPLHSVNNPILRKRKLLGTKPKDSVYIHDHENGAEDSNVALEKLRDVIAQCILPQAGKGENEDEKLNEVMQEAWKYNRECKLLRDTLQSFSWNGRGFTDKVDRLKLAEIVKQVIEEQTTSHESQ

[8] = molecular target: STK3 (Homo sapiens, UniProt Q13188)
STK3, sequence (Q13188 whole entry): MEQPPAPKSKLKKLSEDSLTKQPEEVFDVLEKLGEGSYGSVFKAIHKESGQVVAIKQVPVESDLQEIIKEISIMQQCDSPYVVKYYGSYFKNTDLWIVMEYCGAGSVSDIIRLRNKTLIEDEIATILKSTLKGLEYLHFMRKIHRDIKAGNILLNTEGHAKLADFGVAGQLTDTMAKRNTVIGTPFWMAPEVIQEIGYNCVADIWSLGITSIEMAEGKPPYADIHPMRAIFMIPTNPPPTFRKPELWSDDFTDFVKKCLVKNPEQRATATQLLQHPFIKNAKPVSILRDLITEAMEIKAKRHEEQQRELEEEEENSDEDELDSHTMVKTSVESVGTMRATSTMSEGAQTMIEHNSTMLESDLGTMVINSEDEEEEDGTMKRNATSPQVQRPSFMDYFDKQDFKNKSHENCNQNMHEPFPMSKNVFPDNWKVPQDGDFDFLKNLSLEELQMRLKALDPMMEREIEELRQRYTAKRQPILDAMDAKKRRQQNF

[9] = molecular target: PRKDC (Homo sapiens, UniProt P78527)

MAPK7, sequence (Q13164 whole entry): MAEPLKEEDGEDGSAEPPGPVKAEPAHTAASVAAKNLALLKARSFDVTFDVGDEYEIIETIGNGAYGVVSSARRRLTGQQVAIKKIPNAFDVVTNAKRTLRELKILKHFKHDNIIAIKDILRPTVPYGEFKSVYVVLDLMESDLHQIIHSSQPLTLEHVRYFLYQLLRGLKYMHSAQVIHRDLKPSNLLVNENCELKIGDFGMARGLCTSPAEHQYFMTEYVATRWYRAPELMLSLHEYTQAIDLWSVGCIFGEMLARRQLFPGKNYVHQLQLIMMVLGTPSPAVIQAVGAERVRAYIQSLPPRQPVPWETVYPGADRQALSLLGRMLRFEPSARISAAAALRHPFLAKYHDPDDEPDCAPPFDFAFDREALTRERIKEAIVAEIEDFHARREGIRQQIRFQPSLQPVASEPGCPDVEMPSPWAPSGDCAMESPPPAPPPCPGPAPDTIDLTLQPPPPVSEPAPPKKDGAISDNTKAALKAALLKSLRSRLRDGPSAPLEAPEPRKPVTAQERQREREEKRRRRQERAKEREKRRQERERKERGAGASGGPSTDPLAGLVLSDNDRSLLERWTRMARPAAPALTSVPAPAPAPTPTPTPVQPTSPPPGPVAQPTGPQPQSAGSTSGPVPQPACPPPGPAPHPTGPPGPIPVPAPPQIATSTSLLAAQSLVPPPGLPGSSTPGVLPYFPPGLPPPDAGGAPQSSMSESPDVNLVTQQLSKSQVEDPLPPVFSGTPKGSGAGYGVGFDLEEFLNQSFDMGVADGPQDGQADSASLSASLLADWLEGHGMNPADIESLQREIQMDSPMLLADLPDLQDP

For `CN1CCN(c2ccc(Nc3ncc(C#N)c(Nc4ccccc4C(N)=O)n3)cc2)CC1.Cl` [TCMDC-134116], the IC50 [1] was 280 nM and 380 nM, the IC50 [2] was 970 nM and 1000 nM and the IC50 [3] was 190 nM and 220 nM. For the same compound, the IC50 [4] was 510 nM and 330 nM.

For `Cl.NCC1(c2nc(-c3ccc(Cl)c(O)c3)c(-c3ccncc3)[nH]2)CCCCC1` [TCMDC-141154], the IC50 [5] was over 20000 nM, the IC50 [1] was 1100 nM and 1900 nM and the IC50 [2] was over 20000 nM. The IC50 [6] was 95 nM and 140 nM, the IC50 [7] was over 20000 nM and the IC50 [8] was over 20000 nM. The IC50 [3] was over 20000 nM, the IC50 [9] was over 20000 nM and the IC50 [4] was over 20000 nM.

In the case of `CN(C)CC(O)COc1ccc(Nc2ncc([N+](=O)[O-])c(Nc3ccccc3O)n2)cc1.O=C(O)C(F)(F)F` (stereo not drawn) [TCMDC-141399], the IC50 [5] is reported as 12000 nM and 7600 nM, the IC50 [6] is reported as over 20000 nM and the IC50 [7] is reported as 320 nM. For the same compound, the IC50 [8] was over 20000 nM and the IC50 [9] was over 20000 nM.
